Assays:
[1] = molecular target: T1, Ephrin type-B receptor 2 (Homo sapiens) (UniProt P29323); assay: Selectivity interaction (KinomeScan (DiscoverX)) EUB0000666a EPHB2; settings: at 10 µM
T1 sequence (whole entry): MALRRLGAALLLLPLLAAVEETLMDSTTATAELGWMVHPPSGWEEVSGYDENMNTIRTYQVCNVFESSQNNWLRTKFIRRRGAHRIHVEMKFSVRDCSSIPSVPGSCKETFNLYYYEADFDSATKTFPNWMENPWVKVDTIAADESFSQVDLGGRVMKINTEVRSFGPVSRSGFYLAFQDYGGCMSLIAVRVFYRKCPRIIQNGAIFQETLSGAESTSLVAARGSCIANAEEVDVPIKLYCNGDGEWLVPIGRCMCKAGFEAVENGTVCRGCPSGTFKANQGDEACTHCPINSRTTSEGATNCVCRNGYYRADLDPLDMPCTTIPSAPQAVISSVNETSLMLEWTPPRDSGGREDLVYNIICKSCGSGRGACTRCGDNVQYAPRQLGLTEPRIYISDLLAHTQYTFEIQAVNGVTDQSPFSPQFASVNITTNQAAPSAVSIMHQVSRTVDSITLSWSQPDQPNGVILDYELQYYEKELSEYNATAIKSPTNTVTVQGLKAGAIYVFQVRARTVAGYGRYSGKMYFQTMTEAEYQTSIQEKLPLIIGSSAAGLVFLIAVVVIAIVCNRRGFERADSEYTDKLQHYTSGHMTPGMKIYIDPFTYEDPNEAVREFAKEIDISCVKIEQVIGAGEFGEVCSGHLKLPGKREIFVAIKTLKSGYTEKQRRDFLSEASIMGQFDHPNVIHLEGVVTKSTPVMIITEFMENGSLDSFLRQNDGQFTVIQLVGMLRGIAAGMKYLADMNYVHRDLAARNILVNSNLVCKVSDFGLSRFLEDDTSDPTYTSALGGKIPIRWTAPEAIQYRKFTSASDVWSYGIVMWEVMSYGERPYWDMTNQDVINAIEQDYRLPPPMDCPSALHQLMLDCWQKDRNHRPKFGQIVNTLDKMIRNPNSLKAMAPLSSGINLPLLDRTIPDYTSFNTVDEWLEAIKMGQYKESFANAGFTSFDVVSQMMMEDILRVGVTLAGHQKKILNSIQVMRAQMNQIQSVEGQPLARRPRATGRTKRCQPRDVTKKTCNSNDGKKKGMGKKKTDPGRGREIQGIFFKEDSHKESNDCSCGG

[2] = molecular target: Serine/threonine-protein kinase B-raf (Homo sapiens) (UniProt P15056); assay: (§1) Selectivity interaction (KinomeScan (DiscoverX)) EUB0000666a BRAF; settings: at 10 µM
Sequence of Serine/threonine-protein kinase B-raf (Homo sapiens) (P15056 whole entry): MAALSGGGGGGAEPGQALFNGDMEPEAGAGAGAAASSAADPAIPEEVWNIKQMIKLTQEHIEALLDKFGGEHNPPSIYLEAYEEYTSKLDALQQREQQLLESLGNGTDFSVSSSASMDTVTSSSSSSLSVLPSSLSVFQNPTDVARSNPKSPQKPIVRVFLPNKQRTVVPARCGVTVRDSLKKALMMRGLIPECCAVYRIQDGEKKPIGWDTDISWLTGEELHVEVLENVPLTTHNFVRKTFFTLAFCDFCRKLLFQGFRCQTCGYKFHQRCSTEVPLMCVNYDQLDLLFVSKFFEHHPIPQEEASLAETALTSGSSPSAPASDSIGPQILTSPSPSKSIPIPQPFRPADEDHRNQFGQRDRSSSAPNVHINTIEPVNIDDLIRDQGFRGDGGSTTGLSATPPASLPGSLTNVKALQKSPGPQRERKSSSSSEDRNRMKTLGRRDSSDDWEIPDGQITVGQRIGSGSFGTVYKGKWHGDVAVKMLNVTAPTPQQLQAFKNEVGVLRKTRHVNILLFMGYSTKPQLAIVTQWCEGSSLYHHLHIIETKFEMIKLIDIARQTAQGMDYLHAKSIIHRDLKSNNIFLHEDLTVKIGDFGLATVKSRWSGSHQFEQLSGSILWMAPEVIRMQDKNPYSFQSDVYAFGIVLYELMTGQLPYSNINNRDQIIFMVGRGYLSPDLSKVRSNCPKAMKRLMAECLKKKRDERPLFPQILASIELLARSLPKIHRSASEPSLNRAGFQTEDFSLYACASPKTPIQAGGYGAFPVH

[3] = tested on: Serine/threonine-protein kinase B-raf (Homo sapiens), P15056 [V600E]; assay: as §1; settings: at 10 µM
Sequence of Serine/threonine-protein kinase B-raf (Homo sapiens), P15056 [V600E] (P15056 whole entry V600E): as the sequence (P15056 whole entry) above, with V600E counted along it

[4] = molecular target: Angiopoietin-1 receptor (Homo sapiens) (UniProt Q02763); assay: Selectivity interaction (Ambit KINOMEscan and KiNATiv profiling in Jurkat cells) EUB0000090b TEK; type: cell-based; settings: at 1 µM
Sequence of Angiopoietin-1 receptor (Homo sapiens) (Q02763 whole entry): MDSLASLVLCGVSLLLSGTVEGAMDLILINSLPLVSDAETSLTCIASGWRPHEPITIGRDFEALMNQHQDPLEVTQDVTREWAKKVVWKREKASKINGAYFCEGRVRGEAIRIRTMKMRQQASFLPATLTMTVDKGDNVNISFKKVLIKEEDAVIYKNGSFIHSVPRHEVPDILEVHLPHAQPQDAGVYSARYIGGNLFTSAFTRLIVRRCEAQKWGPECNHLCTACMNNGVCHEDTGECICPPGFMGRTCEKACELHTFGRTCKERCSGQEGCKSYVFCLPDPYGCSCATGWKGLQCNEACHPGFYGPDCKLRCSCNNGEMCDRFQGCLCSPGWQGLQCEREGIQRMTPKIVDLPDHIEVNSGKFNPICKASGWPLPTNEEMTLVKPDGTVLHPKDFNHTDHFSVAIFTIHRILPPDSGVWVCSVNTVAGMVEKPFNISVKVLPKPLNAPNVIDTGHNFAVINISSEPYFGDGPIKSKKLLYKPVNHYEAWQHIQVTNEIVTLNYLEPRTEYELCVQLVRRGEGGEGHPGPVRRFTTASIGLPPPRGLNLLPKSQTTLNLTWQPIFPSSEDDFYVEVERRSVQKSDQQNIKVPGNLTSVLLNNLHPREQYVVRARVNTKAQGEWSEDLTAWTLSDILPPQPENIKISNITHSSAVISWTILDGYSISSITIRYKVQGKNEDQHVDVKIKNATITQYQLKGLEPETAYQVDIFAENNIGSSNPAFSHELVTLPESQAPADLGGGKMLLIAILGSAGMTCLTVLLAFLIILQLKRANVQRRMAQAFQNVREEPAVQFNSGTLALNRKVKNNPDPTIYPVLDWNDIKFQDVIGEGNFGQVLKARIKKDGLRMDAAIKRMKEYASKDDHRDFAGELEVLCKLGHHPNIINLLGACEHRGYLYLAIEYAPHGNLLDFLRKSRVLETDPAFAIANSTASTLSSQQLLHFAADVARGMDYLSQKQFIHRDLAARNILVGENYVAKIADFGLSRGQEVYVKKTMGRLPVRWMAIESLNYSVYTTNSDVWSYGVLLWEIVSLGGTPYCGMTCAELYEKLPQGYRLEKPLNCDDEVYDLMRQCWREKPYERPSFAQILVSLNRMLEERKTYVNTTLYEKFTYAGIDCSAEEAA

[5] = molecular target: Serine/threonine-protein kinase 24 (Homo sapiens) (UniProt Q9Y6E0); assay: Selectivity interaction (KinomeScan (DiscoverX)) EUB0001619a STK24; settings: at 1 µM
Sequence of Serine/threonine-protein kinase 24 (Homo sapiens) (Q9Y6E0 whole entry, looked up): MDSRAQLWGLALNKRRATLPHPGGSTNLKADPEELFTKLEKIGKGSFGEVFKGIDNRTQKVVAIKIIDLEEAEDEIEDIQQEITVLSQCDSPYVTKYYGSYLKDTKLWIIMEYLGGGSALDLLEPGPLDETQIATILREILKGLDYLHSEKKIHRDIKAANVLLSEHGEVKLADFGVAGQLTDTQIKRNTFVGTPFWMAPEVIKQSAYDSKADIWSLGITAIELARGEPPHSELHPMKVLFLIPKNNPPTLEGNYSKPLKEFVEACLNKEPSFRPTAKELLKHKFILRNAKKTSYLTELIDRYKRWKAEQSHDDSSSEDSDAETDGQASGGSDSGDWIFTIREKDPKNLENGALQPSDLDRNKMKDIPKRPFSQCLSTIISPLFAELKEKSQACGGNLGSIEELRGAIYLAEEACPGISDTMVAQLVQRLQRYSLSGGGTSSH

[6] = molecular target: T2, Tyrosine-protein kinase ZAP-70 (Homo sapiens) (UniProt P43403); assay: Selectivity interaction (ActivX KiNativ screen (ex vivo kinase selectivity in human PBMCs)) EUB0001619a ZAP70; type: cell-based; settings: PBMC, at 1 µM
T2 sequence (whole entry): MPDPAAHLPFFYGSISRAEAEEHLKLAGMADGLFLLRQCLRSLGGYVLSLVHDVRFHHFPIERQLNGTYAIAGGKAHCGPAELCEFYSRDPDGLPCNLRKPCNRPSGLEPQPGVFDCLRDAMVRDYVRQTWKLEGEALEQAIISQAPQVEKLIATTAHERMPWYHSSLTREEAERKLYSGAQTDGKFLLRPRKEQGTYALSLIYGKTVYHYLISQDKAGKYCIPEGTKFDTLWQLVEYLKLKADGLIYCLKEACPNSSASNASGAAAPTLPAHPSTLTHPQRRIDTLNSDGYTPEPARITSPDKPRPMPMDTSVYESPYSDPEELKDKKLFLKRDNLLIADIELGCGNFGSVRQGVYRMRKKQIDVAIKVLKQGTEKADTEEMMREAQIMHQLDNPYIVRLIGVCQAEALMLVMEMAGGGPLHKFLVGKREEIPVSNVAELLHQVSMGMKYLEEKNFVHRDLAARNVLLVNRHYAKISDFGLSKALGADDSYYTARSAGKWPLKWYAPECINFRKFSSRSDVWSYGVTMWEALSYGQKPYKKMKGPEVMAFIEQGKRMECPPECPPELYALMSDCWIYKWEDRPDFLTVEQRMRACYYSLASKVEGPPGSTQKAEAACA

[7] = molecular target: Ribosomal protein S6 kinase beta-2 (Homo sapiens) (UniProt Q9UBS0); assay: Selectivity interaction (ProQinase) EUB0000171b RPS6KB2
Sequence of Ribosomal protein S6 kinase beta-2 (Homo sapiens) (Q9UBS0 whole entry): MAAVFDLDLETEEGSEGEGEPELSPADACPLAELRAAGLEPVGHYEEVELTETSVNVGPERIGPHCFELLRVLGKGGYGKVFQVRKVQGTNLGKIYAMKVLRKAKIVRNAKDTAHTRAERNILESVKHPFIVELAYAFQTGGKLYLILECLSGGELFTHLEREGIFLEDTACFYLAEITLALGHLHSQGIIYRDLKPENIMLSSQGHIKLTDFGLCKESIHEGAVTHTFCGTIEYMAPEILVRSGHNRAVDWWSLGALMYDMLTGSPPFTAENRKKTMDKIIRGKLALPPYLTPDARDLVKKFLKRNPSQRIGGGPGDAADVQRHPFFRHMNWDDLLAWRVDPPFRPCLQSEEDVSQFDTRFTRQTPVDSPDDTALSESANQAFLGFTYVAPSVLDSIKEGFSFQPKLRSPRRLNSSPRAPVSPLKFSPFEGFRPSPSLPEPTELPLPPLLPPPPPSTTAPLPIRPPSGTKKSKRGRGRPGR

## O=C(NOC[C@H](O)CO)c1ccc(F)c(F)c1Nc1ccc(I)cc1F
[1]
  % of control: 73%
[2]
  % of control: 98%
[3]
  % of control: 100%

## CN(C)C/C=C/C(=O)Nc1ccc(C(=O)N2CCCC(Nc3ncc(Cl)c(-c4c[nH]c5ccccc45)n3)C2)cc1 (stereo not drawn)
[4]
  % of control: 92%

## N#Cc1cccc(-c2c[nH]c3ncnc(N4CCOCC4)c23)c1
[5]
  % of control: 60%
[6]
  % of inhibition: -3%

## C=CC(=O)Nc1cccc(C(=O)Nc2ccc(Nc3cc(-c4[nH]c(SC)nc4C)ccn3)cc2)c1
[7]; at 1 µM
  % of control: 87%
[7]; at 5 µM
  % of control: 79%

From ChEMBL document CHEMBL5465560, “Selectivity Literature for EUbOPEN Chemogenomic Library” (2024)
